Where a name gives a salt, the structure may show the parent alone.

In the assay the target is T1, Syk tyrosine kinase (Homo sapiens, UniProt P43405).
T1 construct: purchased Carna Biosciences, Inc
Put plainly: Test for Syk tyrosine kinase inhibitory activity (ELISA). The class given is biochemical. The conditions noted are these: Syk tyrosine kinase (Carna Biosciences), 25 μM ATP in substrate solution, 30° C. 1 hour, n=2; read-out: Evaluation (IC50, concentration inhibiting the tyrosine kinase activity at 50%). Put shortly:
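Syk kinase (0.025 nM stock before addition) with 625 nM biotinylated peptide and 25 μM ATP (substrate-solution levels) in Tris pH 7.5, MgCl2, DTT; 1 h at 30 °C on streptavidin plates. Phosphotyrosine detected by HRP anti-pTyr antibody, TMB, A450; IC50 by non-linear regression.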
Regarding `N#Cc1ccnc(Nc2cc(C3CC3)cc(-c3ccc4ccnc(N5CCC(O)CC5)c4c3)n2)c1` [Example 164, 2-({4-cyclopropyl-6-[1-(4-hydroxypiperidin-1-yl)isoquinolin-7-yl]pyridin-2-yl}amino)pyridine-4-carbonitrile hydrochloride], the IC50 fell in the range of 5 to 50 nM.

As to `Cn1cc(-c2cncc(-c3cc(C4CC4)cc(Nc4cc(C#N)ccn4)n3)c2)cn1` [Example 114, 2-{[4-cyclopropyl-5′-(1-methyl-1H-pyrazol-4-yl)-2,3′-bipyridin-6-yl]amino}pyridine-4-carbonitrile hydrochloride], the IC50 lay in the range of 50 to 500 nM.

With `N#Cc1ccnc(Nc2cc(C3CC3)cc(-c3cncc(CNC4CCNCC4)c3)n2)c1` [Example 93, 2-({4-cyclopropyl-5′-[(piperidin-4-ylamino)methyl]-2,3′-bipyridine-6-yl}amino)pyridine-4-carbonitrile hydrochloride], the IC50 lay in the range of 5 to 50 nM.

For `N#Cc1ccnc(Nc2cc(C3CC3)cc(-c3cccc(CN4CCNC(=O)C4)c3)n2)c1` [Example 79, 2-[(4-cyclopropyl-6-{3-[(3-oxopiperazin-1-yl)methyl]phenyl}pyridin-2-yl)amino]pyridine-4-carbonitrile hydrochloride], the IC50 was 5 to 50 nM.

As for `N#Cc1ccnc(Nc2cc(C3CC3)cc(-c3cncc(N4CCS(=O)(=O)CC4)c3)n2)c1` [Example 68, 2-{[4-cyclopropyl-5′-(1,1-dioxidethiomorpholin-4-yl)-2,3′-bipyridin-6-yl]amino}pyridine-4-carbonitrile hydrochloride], the IC50 is 50 to 500 nM.

In the case of `N#Cc1ccnc(Nc2cc(C3CC3)cc(-c3cncc(N4CCC(O)C4)c3)n2)c1` (stereo not shown) [Example 111, 2-{[4-cyclopropyl-5′-(3-hydroxypyrrolidin-1-yl)-2,3′-bipyridin-6-yl]amino}pyridine-4-carbonitrile hydrochloride], the IC50 is 5 to 50 nM.

In the case of `N#Cc1ccnc(Nc2cc(C3CC3)cc(-c3ccc(N4CCNCC4=O)nc3)n2)c1` [Example 66, 2-{[4-cyclopropyl-6′-(2-oxopiperazin-1-yl)-2,3′-bipyridin-6-yl]amino}pyridine-4-carbonitrile hydrochloride], the IC50 lay in the range of 50 to 500 nM.

For the molecule `N#Cc1ccnc(Nc2cc(C3CC3)cc(-c3ccc(N4CCN(C(N)=O)CC4)nc3)n2)c1` [Example 57, 4-{6-[(4-cyanopyridin-2-yl)amino]-4-cyclopropyl-2,3′-bipyridin-6′-yl}piperazine-1-carboxamide hydrochloride], the IC50 lay within 5 to 50 nM.

On to `CS(=O)(=O)N1CCN(c2ccc(-c3cc(C4CC4)cc(Nc4cc(C#N)ccn4)n3)cn2)CC1` [Example 58, 2-({4-cyclopropyl-6′-[4-(methanesulfonyl)piperazin-1-yl]-2,3′-bipyridin-6-yl}amino)pyridine-4-carbonitrile hydrochloride], for which the IC50 lay within 5 to 50 nM.

For the molecule `N#Cc1ccnc(Nc2cc(C3CC3)cc(-c3ccc4ncn(Cc5cccnc5)c4c3)n2)c1` [Example 130, 2-({4-cyclopropyl-6-[1-(pyridin-3-ylmethyl)-1H-benzimidazol-6-yl]pyridin-2-yl}amino)pyridine-4-carbonitrile hydrochloride], the IC50 is 50 to 500 nM.

As for `N#Cc1ccnc(Nc2cc(C3CC3)cc(-c3ccc(NC4CCN(C(N)=O)CC4)nc3)n2)c1` [Example 65, 4-({6-[(4-cyanopyridin-2-yl)amino]-4-cyclopropyl-2,3′-bipyridin-6′-yl}amino)piperidine-1-carboxamide hydrochloride], the IC50 was in the range of 5 to 50 nM.

With `N#Cc1ccnc(Nc2cc(C3CC3)cc(-c3ccc4ccnc(N5CC[C@@H](N)C5)c4c3)n2)c1` [Example 169, hydrochloride], the IC50 was 5 to 50 nM.

In the case of `N#Cc1ccnc(Nc2cc(C3CC3)cc(-c3ccc4ccnc(N5CCC[C@H]5CO)c4c3)n2)c1` [Example 167, 2-[(4-cyclopropyl-6-{1-[(2S)-2-(hydroxymethyl)pyrrolidin-1-yl]isoquinolin-7-yl}pyridin-2-yl)amino]pyridine-4-carbonitrile hydrochloride], the IC50 was in the range of 5 to 50 nM.

As to `N#Cc1ccnc(Nc2cc(C3CC3)cc(-c3ccc(N4CCC(C(=O)O)CC4)nc3)n2)c1` [Example 60, 1-{6-[(4-cyanopyridin-2-yl)amino]-4-cyclopropyl-2,3′-bipyridin-6′-yl}piperidine-4-carboxylic acid hydrochloride], the IC50 was 5 to 50 nM.

For the molecule `N#Cc1ccnc(Nc2cc(C3CC3)cc(-c3ccc(N4CCC[C@H]4CO)nc3)n2)c1` [Example 48, 2-{(4-cyclopropyl-6′-[(2S)-2-(hydroxymethyl)pyrrolidin-1-yl]-2,3′-bipyridin-6-yl}amino)pyridine-4-carbonitrile hydrochloride], the IC50 lay in the range of 50 to 500 nM.

As to `Cn1ncc2ccc(-c3cc(C4CC4)cc(Nc4cc(C#N)ccn4)n3)cc21` [Example 37, 2{[4-cyclopropyl-6-(1-methyl-1H-indazol-6-yl)pyridin-2-yl]amino}pyridine-4-carbonitrile hydrochloride], the IC50 lay within 5 to 50 nM.

Take `CN(C)C(=O)CCn1cnc2cc(-c3cc(C4CC4)cc(Nc4cc(C#N)ccn4)n3)ccc21` [Example 131, 3-(5-{6-[(4-cyanopyridin-2-yl)amino]-4-cyclopropylpyridin-2-yl}-1H-benzimidazol-1-yl)-N,N-dimethylproanamide hydrochloride]: the IC50 lay within 50 to 500 nM.

Turning to `CC(C)(O)Cn1cnc2ccc(-c3cc(C4CC4)cc(Nc4cc(C#N)ccn4)n3)cc21` [Example 144, 2-({4-cyclopropyl-6-[1-(2-hydroxy-2-methylpropyl)-1H-benzimidazol-6-yl]pyridin-2-yl}amino)pyridine-4-carbonitrile hydrochloride], the IC50 lay in the range of 50 to 500 nM.

As for `N#Cc1ccnc(Nc2cc(C3CC3)cc(-c3cnc(N4CCCN(C(N)=O)CC4)nc3)n2)c1` [Example 106, 4-(5-{6-[(4-cyanopyridin-2-yl)amino]-4-cyclopropylpyridin-2-yl}pyrimidin-2-yl)-1,4-diazepane-1-carboxamide hydrochloride], the IC50 is 5 to 50 nM.

With `N#Cc1ccnc(Nc2cc(C3CC3)cc(-c3ccc(N4CCC[C@@H](O)C4)nc3)n2)c1` [Example 34, 2-({4-cyclopropyl-6′-[(3R)-3-hydroxypiperidin-1-yl]-2,3′-bipyridin-6-yl}amino)pyridine-4-carbonitrile hydrochloride], the IC50 was 5 to 50 nM.

`Cc1nc2ccc(-c3cc(C4CC4)cc(Nc4cc(C#N)ccn4)n3)cc2n1[C@H]1CC[C@H](O)CC1` [Example 159, 2-({4-cyclopropyl-6-[1-trans-4-hydroxycylohexyl)-2-methyl-1H-benzimidazol-6-yl]pyridin-2-yl}amino)pyridine-4-carbonitrile hydrochloride]: the IC50 was less than 5 nM.

Regarding `N#Cc1ccnc(Nc2cc(C3CC3)cc(-c3cnc(N4CCS(=O)(=O)CC4)c(F)c3)n2)c1` [Example 177, 2-{[4-cyclopropyl-6′-(1,1-dioxidethiomorpholin-4-yl)-5′-fluoro-2,3′-bipyridin-6-yl]amino}pyridine-4-carbonitrile hydrochloride], the IC50 was 5 to 50 nM.

Turning to `CCn1cnc2ccc(-c3cc(C4CC4)cc(Nc4cc(C#N)ccn4)n3)cc21` [Example 142, 2-{[4-cyclopropyl-6-(1-ethyl-1H-benzimidazol-6-yl)pyridin-2-yl]amino}pyridine-4-carbonitrile hydrochloride], the IC50 is 50 to 500 nM.

For the molecule `N#Cc1ccnc(Nc2cc(C3CC3)cc(-c3ccc4ccnc(N5CC[C@@H](O)C5)c4c3)n2)c1` [Example 165, 2-[(4-cyclopropyl-6-{1-[(3R)-3-hydroxypyrrolidin-1-]isoquinolin-7-yl}pyridin-2-yl)amino]pyridine-4-carbonitrile hydrochloride], the IC50 fell in the range of 5 to 50 nM.

In the case of `CC(C)c1nc2ccc(-c3cc(C4CC4)cc(Nc4cc(C#N)ccn4)n3)cc2n1[C@H]1CC[C@H](O)CC1` [Example 161, 2-({4-cyclopropyl-6-[1-(trans-4-hydroxycyclohexyl)-2-(propan-2-yl)-1H-benzimidazol-6-yl]pyridin-2-y}amino)pyridine-4-carbonitrile hydrochloride], the IC50 was less than 5 nM.

Take `N#Cc1ccnc(Nc2cc(C3CC3)cc(-c3cncc(CN4CCNC(=O)C4)c3)n2)c1` [Example 73, 2-({4-cyclopropyl-5′-[(3-oxopiperazin-1-yl)methyl]-2,3′-bipyridin-6-yl}amino)pyridine-4-carbonitrile hydrochloride]: the IC50 is 5 to 50 nM.

Turning to `N#Cc1ccnc(Nc2cc(C3CC3)cc(-c3ccc(N4C[C@H](O)CC4=O)nc3)n2)c1` [Example 8, 2-({4-cyclopropyl-6′-[(4R)-4-hydroxy-2-oxopyrrolidin-1-yl]-2,3′-bipyridin-6-yl}amino)pyridine-4-carbonitrile hydrochloride], the IC50 was in the range of 50 to 500 nM.

With `N#Cc1ccnc(Nc2cc(C3CC3)cc(-c3ccc4ncn([C@H]5CC[C@H](N)CC5)c4c3)n2)c1` [Example 172, 2-({6-[1-(trans-4-aminocyclohexyl)-1H-benzimidazol-6-yl]-4-cyclopropylpyridin-2-yl}amino)pyridine-4-carbonitrile hydrochloride], the IC50 was 5 to 50 nM.

Regarding `N#Cc1ccnc(Nc2cc(C3CC3)cc(-c3cncc(OCCN4CCNCC4)c3)n2)c1` [Example 100, 2-({4-cyclopropyl-5′-[2-(piperazin-1-yl)ethoxy]-2,3′-bipyridin-6-yl}amino)pyridine-4-carbonitrile hydrochloride], the IC50 lay within 5 to 50 nM.

For the molecule `N#Cc1ccnc(Nc2cc(C3CC3)cc(-c3cncc(OCC(N)=O)c3)n2)c1` [Example 109, 2-({6-[(4-cyanopyridin-2-yl)amino]-4-cyclopropyl-2,3′-bipyridin-5′-yl}oxy)acetamide hydrochloride], the IC50 lay in the range of 5 to 50 nM.

Consider `N#Cc1ccnc(Nc2cc(C3CC3)cc(-c3cncc(CN4CCNCC4)c3)n2)c1` [Example 81, 2-{[4-cyclopropyl-5′-(piperazin-1-ylmethyl)-2,3′-bipyridin-6-yl]amino}pyridine-4-carbonitrile hydrochloride], for which the IC50 is 5 to 50 nM.
